The text below walks through data of ChEMBL document CHEMBL4308841, “Synthesis, in vitro antiproliferative activity, and kinase inhibitory effects of pyrazole-containing diarylureas and diarylamides” (Eur J Med Chem, 2018).

Some results are limits rather than exact numbers.

The target in test [1] is Receptor-type tyrosine-protein kinase FLT3 (Homo sapiens) (UniProt P36888). Description: Inhibition of human FLT3 at 10 uM using EAIYAAPFAKKK as substrate after 40 mins in presence of [gamma33P]ATP by scintillation counting method relative to control.
The subject of test [2] is TK-10. Description: Growth inhibition of human TK10 cells assessed as cell growth at 0.01 uM incubated for 48 hrs by sulforhodamine B assay relative to control. It is filed as functional. To be noted: TK-10, 48 h, read-out: Activity.
Test [3] relates to Serine/threonine-protein kinase B-raf (Homo sapiens), P15056 [V600E]. Briefly: Inhibition of human BRAF V600E mutant at 10 uM using MEK1 (K97R) as substrate after 40 mins in presence of [gamma33P]ATP by scintillation counting method relative to control.
The test system of test [4] is HOP-92. Briefly: Growth inhibition of human HOP92 cells assessed as cell growth at 1 uM incubated for 48 hrs by sulforhodamine B assay relative to control. The test is classed as functional. To be noted: HOP-92, 48 h, read-out: Activity.
The target of test [5] is RAC-alpha serine/threonine-protein kinase (Homo sapiens) (UniProt P31749). Description: Inhibition of human AKT1 at 10 uM using KGSGSGRPRTSSFAEG as substrate after 40 mins in presence of [gamma33P]ATP by scintillation counting method relative to control.
Test [6] has as its target Vascular endothelial growth factor receptor 2 (Homo sapiens) (UniProt P35968). Description: Inhibition of human VEGFR2 at 10 uM using poly[Glu:Tyr] (4:1) as substrate after 40 mins in presence of [gamma33P]ATP by scintillation counting method relative to control.
The next test deals with RAW264.7. Briefly: Cytotoxicity against mouse RAW264.7 cells by MTT assay. The test is classed as cell-based.
The test system of test [7] is TK-10. Description: Growth inhibition of human TK10 cells assessed as cell growth at 0.1 uM incubated for 48 hrs by sulforhodamine B assay relative to control. As to conditions: TK-10, 48 h, read-out: Activity. It is filed as functional.
Test [8] addresses Tyrosine-protein kinase JAK1 (Homo sapiens) (UniProt P23458). Briefly: Inhibition of human JAK1 at 10 uM using poly[Glu:Tyr] (4:1) as substrate after 40 mins in presence of [gamma33P]ATP by scintillation counting method relative to control.
Test [9] addresses Platelet-derived growth factor receptor beta (Homo sapiens) (UniProt P09619). Briefly: Inhibition of human PDGFRb at 10 uM using poly[Glu:Tyr] (4:1) as substrate after 40 mins in presence of [gamma33P]ATP by scintillation counting method relative to control.
The target in test [10] is PI3-kinase p110-alpha/p85-alpha (Homo sapiens) (UniProt P27986+P42336). Briefly: Inhibition of human PI3K p110a/p85a at 10 uM using PI(4,5)P2:PS as substrate after 40 mins in presence of [gamma33P]ATP by scintillation counting method relative to control. It is filed as protein-complex assay.
Test [11] addresses Tyrosine-protein kinase JAK2 (Homo sapiens) (UniProt O60674). Description: Inhibition of human JAK2 at 10 uM using poly[Glu:Tyr] (4:1) as substrate after 40 mins in presence of [gamma33P]ATP by scintillation counting method relative to control.
In test [12] the target is DNA-dependent protein kinase catalytic subunit (Homo sapiens) (UniProt P78527). Description: Inhibition of human DNAPK at 10 uM using EPPLSQEAFADLWKK as substrate after 40 mins in presence of [gamma33P]ATP by scintillation counting method relative to control.
Test [13] has as its target Mast/stem cell growth factor receptor Kit (Homo sapiens) (UniProt P10721). Briefly: Inhibition of human c-KIT at 10 uM using poly[Glu:Tyr] (4:1) as substrate after 40 mins in presence of [gamma33P]ATP by scintillation counting method relative to control.
Another test relates to RPMI-8226. Briefly: Induction of apoptosis in human RPMI8226 cells assessed as increase in caspase 3/7 level at 10 uM relative to control. It is filed as functional.
Test [14] deals with HOP-92. Description: Growth inhibition of human HOP92 cells assessed as cell growth at 0.01 uM incubated for 48 hrs by sulforhodamine B assay relative to control. The test is classed as functional. To be noted: HOP-92, 48 h, read-out: Activity. Background: In SRB staining, fixed cells bind dye roughly in proportion to their protein.
Test [15] has as its target ALK tyrosine kinase receptor (Homo sapiens) (UniProt Q9UM73). Description: Inhibition of human ALK at 10 uM using poly[Glu:Tyr] (4:1) as substrate after 40 mins in presence of [gamma33P]ATP by scintillation counting method relative to control.
The target of test [16] is Serine/threonine-protein kinase B-raf (Homo sapiens) (UniProt P15056). Description: Inhibition of human BRAF at 10 uM using MEK1 (K97R) as substrate after 40 mins in presence of [gamma33P]ATP by scintillation counting method relative to control.
In test [17] the test system is HOP-92. Description: Growth inhibition of human HOP92 cells assessed as cell growth at 100 uM incubated for 48 hrs by sulforhodamine B assay relative to control. It is filed as functional. As to conditions: HOP-92, 48 h, read-out: Activity.

Sequence of DNA-dependent protein kinase catalytic subunit (Homo sapiens) (P78527 whole entry): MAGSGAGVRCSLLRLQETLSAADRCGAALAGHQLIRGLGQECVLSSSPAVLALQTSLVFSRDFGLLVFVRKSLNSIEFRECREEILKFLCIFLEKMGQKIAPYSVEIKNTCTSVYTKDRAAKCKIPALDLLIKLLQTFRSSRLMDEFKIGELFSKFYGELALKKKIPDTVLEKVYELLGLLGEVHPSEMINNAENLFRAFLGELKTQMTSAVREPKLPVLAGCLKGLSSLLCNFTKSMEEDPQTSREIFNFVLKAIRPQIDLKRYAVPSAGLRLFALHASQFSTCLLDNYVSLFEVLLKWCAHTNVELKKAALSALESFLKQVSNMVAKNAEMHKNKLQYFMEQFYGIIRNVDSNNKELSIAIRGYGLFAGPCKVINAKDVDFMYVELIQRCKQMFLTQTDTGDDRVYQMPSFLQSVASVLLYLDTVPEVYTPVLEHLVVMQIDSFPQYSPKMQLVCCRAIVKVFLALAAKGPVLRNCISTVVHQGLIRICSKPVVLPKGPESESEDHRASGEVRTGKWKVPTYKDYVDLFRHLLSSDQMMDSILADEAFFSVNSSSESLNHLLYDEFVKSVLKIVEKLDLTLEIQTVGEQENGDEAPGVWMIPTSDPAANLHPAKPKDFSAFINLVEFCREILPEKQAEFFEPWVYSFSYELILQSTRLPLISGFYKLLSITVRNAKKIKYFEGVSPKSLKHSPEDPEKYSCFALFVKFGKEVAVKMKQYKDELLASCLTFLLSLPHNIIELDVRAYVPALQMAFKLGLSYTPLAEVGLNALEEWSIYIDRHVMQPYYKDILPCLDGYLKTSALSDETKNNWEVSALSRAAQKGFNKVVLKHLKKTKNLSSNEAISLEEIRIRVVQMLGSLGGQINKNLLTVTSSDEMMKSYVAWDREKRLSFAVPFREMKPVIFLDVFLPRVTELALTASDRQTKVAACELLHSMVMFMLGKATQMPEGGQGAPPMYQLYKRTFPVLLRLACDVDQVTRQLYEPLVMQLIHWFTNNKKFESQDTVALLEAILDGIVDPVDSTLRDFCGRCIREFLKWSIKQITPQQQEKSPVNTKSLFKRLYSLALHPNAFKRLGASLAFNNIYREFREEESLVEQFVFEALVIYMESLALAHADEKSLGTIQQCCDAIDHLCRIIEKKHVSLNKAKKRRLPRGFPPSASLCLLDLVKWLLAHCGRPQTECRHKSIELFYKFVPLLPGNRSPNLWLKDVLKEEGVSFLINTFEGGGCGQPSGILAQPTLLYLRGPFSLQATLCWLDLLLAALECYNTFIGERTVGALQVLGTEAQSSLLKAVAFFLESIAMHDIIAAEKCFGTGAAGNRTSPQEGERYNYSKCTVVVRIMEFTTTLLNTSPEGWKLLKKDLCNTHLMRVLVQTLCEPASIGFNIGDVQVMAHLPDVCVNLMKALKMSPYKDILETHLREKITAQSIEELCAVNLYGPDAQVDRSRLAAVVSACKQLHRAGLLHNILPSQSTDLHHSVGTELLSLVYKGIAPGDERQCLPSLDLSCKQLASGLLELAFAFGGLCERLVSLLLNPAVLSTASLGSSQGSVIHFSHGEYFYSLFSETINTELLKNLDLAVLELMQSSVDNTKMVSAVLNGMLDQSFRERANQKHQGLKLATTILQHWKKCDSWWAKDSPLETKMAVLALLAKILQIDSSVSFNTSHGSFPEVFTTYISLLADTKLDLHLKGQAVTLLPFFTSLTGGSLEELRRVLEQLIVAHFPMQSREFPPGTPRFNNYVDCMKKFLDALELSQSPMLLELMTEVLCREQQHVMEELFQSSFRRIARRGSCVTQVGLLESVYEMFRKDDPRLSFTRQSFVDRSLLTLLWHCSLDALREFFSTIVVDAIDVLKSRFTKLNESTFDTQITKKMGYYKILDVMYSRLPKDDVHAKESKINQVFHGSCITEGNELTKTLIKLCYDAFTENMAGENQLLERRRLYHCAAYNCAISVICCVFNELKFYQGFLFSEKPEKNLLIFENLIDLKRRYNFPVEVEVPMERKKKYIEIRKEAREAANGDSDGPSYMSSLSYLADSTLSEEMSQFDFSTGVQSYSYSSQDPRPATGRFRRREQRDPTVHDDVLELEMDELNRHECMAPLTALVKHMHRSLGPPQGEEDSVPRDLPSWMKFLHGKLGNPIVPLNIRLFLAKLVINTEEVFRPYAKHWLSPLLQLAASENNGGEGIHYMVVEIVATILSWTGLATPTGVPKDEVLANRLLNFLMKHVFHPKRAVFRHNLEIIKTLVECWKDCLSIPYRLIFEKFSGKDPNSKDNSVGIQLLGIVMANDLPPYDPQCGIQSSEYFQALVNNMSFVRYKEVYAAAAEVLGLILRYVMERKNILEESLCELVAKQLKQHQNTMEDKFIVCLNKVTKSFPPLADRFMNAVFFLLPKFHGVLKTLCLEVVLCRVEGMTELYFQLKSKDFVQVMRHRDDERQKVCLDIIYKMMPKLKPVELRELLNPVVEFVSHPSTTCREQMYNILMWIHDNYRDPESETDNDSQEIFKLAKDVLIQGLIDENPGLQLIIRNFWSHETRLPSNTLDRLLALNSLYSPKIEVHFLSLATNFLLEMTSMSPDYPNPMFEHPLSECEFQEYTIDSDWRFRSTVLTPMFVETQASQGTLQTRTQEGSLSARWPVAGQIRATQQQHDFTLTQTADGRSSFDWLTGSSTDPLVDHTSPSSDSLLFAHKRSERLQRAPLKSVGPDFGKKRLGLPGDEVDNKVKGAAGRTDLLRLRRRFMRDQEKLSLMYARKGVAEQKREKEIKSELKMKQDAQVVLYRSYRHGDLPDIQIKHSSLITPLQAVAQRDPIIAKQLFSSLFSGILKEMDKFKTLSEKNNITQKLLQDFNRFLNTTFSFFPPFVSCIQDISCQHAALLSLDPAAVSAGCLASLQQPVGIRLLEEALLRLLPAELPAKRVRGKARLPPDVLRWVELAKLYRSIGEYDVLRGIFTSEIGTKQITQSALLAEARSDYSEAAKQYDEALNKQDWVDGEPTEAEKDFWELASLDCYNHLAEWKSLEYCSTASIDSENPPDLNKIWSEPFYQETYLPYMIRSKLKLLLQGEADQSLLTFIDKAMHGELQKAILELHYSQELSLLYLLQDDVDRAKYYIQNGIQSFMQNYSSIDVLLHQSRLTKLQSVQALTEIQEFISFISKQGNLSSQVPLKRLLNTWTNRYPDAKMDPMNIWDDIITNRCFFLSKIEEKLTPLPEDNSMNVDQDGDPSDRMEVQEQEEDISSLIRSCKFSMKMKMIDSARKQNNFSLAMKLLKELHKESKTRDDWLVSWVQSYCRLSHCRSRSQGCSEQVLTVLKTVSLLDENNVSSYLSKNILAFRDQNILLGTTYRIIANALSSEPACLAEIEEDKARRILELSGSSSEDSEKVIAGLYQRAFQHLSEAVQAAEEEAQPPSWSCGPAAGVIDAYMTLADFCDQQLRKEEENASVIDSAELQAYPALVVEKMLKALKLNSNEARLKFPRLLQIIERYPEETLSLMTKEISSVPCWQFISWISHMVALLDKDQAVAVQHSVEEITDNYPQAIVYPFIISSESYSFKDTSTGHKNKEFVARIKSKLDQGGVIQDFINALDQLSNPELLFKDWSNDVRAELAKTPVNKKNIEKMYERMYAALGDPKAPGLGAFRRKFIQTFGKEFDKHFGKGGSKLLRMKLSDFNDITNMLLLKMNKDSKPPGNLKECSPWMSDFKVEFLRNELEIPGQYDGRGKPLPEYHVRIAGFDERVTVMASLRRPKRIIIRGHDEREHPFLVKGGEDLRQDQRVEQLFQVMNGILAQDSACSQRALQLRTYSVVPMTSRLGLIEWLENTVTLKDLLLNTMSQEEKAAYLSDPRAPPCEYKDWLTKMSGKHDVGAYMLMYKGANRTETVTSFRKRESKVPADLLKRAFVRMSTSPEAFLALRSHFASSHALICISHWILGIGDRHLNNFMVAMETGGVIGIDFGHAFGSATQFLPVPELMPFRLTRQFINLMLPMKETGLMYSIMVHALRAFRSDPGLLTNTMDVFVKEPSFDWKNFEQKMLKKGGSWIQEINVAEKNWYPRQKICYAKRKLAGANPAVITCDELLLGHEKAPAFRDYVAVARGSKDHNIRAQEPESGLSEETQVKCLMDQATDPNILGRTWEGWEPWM
Sequence of Mast/stem cell growth factor receptor Kit (Homo sapiens) (P10721 whole entry): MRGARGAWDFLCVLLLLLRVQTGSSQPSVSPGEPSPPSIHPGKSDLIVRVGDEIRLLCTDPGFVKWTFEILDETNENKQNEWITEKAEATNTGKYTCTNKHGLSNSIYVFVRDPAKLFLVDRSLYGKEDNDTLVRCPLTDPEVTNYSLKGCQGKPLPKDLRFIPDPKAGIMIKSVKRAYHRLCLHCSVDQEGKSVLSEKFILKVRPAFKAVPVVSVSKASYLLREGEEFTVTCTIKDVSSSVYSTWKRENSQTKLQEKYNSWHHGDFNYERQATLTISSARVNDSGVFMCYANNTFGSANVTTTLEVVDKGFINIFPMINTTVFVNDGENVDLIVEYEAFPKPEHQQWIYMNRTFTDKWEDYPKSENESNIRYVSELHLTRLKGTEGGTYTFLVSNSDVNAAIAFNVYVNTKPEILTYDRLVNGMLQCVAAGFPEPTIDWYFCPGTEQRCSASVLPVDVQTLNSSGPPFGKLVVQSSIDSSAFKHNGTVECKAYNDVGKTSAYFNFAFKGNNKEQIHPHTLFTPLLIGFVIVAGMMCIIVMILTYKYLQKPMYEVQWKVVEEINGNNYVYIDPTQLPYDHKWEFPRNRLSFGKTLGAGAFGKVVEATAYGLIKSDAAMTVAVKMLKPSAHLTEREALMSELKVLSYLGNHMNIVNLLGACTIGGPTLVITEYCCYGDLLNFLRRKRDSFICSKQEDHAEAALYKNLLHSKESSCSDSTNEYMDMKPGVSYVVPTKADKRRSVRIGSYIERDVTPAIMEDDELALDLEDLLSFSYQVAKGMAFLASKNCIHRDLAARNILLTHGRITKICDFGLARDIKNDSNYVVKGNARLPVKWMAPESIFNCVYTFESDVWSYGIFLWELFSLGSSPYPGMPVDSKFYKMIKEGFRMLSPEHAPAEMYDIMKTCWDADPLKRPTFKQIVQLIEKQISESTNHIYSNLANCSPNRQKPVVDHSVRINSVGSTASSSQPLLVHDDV

As usually defined, the inhibition is the drop in the measured response relative to a control, in per cent. For orientation: IC50 means the concentration at which inhibition is half-maximal. Higher therefore signals weaker potency in that assay. Turning to `COc1cc(Cl)cc(-c2nn(-c3cccc(NC(=O)Nc4cc(C(F)(F)F)cc(C(F)(F)F)c4)c3)cc2-c2ccncc2)c1`, the inhibition in [1] was -2.82%; in test [3] it was 94.7%; in test [5] it was -5.92%; in test [6], -5.83%; in test [8] it was 10.7%; in test [9], -9.26%. For the same compound, the inhibition in test [10] is 16.8%; in [11] it was -2.88%; in test [12] it was 3.5%; in test [13] it was 1.25%; in test [15], -3.77%; in test [16], 39.1%. Also, the growth at 0.01 µM in the test with TK-10 [2] turned out to be 96%; with HOP-92 [14] it was 93%. Also, the growth at 1 µM in the test on HOP-92 [4] is -10%. In the test with RAW264.7, the IC50 is over 100 µM. Moreover, in the test with TK-10 [7], the growth at 0.1 µM was 90%. Also, in the test on RPMI-8226, the “fold change (FC)” value was 2.79. Further, the growth at 100 µM with HOP-92 [17] is -77%.
